In patent US9938316B2, “Selective inhibitors of α2 isoform of Na,K-ATPase and use thereof for reduction of intra-ocular pressure and as cardiotonic agents” (priority 2013, dated 2018):

Key:
[1] = system: purified α2β1FXYD1 complexes of Na,K-ATPase; assay: Dissociation of cardiac glycosides from the α2β1 isoform complex
Description: Since the principal isoform in NPE cells is α2 and dissociation from the pump is expected to affect the duration of the effects on IOP, the dissociation rates of different cardiac glycosides from the purified α2β1 isoform were compared.
Purified α2β1FXYD1 complexes (0.3-0.5 mg/ml) were incubated for 30 minutes at 37° C. in a medium containing ATP, 1 mM; NaCl 100 mM; MgCl2, 4 mM Histidine.HCl 25 mM pH 7.4 without (Control) or with 1 μM of different cardiac glycosides. The enzyme solutions were then diluted 100-fold into a medium containing 100 mM NaCl, 5 mM KCl, 1 mM EDTA (Tris), 0.005 mg/ml C12E8, 0.01 mg/ml SOPS, and 0.001 mg/ml cholesterol and incubated at 37° C. for different lengths of time. Aliquots were removed at different times and Na,K-ATPase activity was measured in triplicate over 0.5 minutes (digoxigenin) or 2 minutes (other cardiac glycosides) in the standard activity medium containing 200 μM ATP. The activity of test samples was divided by the activity of the control samples and the time-course for reversal of inhibition was analyzed by fitting the data to the function vt=v∞e^−kt+c. Normalized curves for comparison of different experiments (e.g. as in FIG. 9) were obtained by subtracting the constant value c from each value of the activity and re-fitting the ratio vt/v∞=1−e^−kt.

[2] = system: intra-ocular pressure (IOP) of rabbits; assay: 4-aminopyridine (4AP)-induced ocular hypertension in rabbits; assay type: in vivo, New Zealand white rabbits; conditions: for Effect on 4AP-induced rise in IOP: 1 drop topically 30 minutes prior to 4AP
Description: Intra-ocular pressure in rabbits was measured using of a “Reichert Model 30™ Pneumatonometer” after anesthetizing the cornea with local anesthetic.
Since the IOP reflects a balance of the inflow and outflow of aqueous humour, reduction of the increased 4AP-induced inflow of aqueous humour by cardiac glycosides should prevent the increase in IOP. Thus, the standard experimental design to test effects of cardiac glycosides involved topical application of the compounds (1 drop in each eye) 30 minutes prior to application of 4AP and measurement of IOP every 30 minutes over five hours. […] Each experiment was done three times, but the figures depict a representative experiment using a different rabbit for each concentration of the cardiac glycoside.
DGlyN or DMe (0.1 or 1 mM) were applied one hour after the first application of 4AP, which was added every two hours.
New Zealand white rabbits (3-3.5 kg) about 1 year old, of either sex, were housed individually in separate cages in animal room conditions on a reversed, 12-hour dark/light cycle. For the experiments the animals were transferred to rabbit restrainers in a quiet and calm atmosphere (FIG. 1). […] Animal care and treatment were subject to the approval of the institutional committee for animal experiments, Weizmann Institute IACUC permission (no 04270911-2).
IOP (mm Hg) of rabbits was measured using a calibrated Pneumatonometer (Model 30, Reichert technologies, FIG. 1). A local anesthetic Oxybuprocaine HCl (0.4%, 25 μl) was applied to each cornea about a minute before IOP measurements. Two baseline IOP readings were taken before topical administration of the CG (or PBS as control) and after half an hour (Zero time). […] At zero time one drop of 4AP (40 mg/ml, 30 μl) or IB-MECA (1 μM, 30 μl) was administered to both eyes of each rabbit IOP measurements were made at different times as indicated in each experiment. In the experiments for which the IOP was elevated for several hours, 4AP was added every […] or IB-MECA every 2 hours. […] In all cases the figures depict the average effect on IOP (i.e for four or six eyes) compared to control ±SEM. […] Significance of differences from the control was calculated by the unpaired Students t-test (p values), p values <0.05 were considered significant. Corneal thickness (μm) was measured using an ultrasonic pachymeter (Sonogage pachometer, Cleveland, USA), before and during the experiment with CG and 4AP treatments. The values represent averages of three independent measurements for each eye.

[3] = system: cornea of rabbits; assay: Pachymetry: corneal thickness and local toxicity after topical cardiac glycosides; assay type: in vivo, New Zealand white rabbits; conditions: rabbit, in vivo
Description: Thus, in this study, no change in corneal thickness was detected (Table 3), indicative of lack of local toxic effects. […] Similar results were obtained with CG's applied after IB-MECA.
IOP (mm Hg) of rabbits was measured using a calibrated Pneumatonometer (Model 30, Reichert technologies, FIG. 1). A local anesthetic Oxybuprocaine HCl (0.4%, 25 μl) was applied to each cornea about a minute before IOP measurements. Two baseline IOP readings were taken before topical administration of the CG (or PBS as control) and after half an hour (Zero time). […] At zero time one drop of 4AP (40 mg/ml, 30 μl) or IB-MECA (1 μM, 30 μl) was administered to both eyes of each rabbit IOP measurements were made at different times as indicated in each experiment. In the experiments for which the IOP was elevated for several hours, 4AP was added every 1.5 hours or IB-MECA every 2 hours. […] Each experiment was repeated two or three times with similar results. In all cases the figures depict the average effect on IOP (i.e for four or six eyes) compared to control ±SEM. Where error bars are not seen in the figures, the errors are smaller than the symbols used. Significance of differences from the control was calculated by the unpaired Students t-test (p values), p values <0.05 were considered significant. Corneal thickness (μm) was measured using an ultrasonic pachymeter (Sonogage pachometer, Cleveland, USA), before and during the experiment with CG and 4AP treatments. The values represent averages of three independent measurements for each eye.

[4] = system: Na,K-ATPase isoforms (α1β1, α2β1, α3β1); conditions: membranes; cited from earlier work

Row | Structure (SMILES) | t1/2 ± SEM (dissociation) [1] | k ± SEM (rate of dissociation) ([1]; α2β1 isoform complex, 37° C.) | Effect on 4AP-induced rise in IOP ([2]; 0.25 mM) | Effect on 4AP-induced rise in IOP ([2]; 1 mM) | Time IOP is maintained at the low level ([2]; 1 mM, single drop, 4AP every two hours) | Redness or local irritation in conjunctiva or cornea [3] | Isoform selectivity of KD (in words) [4]
1 | C[C@H]1O[C@@H](O[C@H]2[C@@H](O)C[C@H](O[C@H]3[C@@H](O)C[C@H](O[C@H]4CC[C@@]5(C)[C@H](CC[C@@H]6[C@@H]5C[C@@H](O)[C@]5(C)[C@@H](C7=CC(=O)OC7)CC[C@]65O)C4)O[C@@H]3C)O[C@@H]2C)C[C@H](O)[C@@H]1O [Digoxin, digoxin, reference compound] | 47.5 ± 5.05 min | 0.015 ± 0.001, 4 min^−1 | poorly effective | able to prevent the 4AP-induced rise in IOP | 1 h | neither redness nor local irritation were observed | 
2 | C[C@]12CC[C@H](O)C[C@H]1CC[C@@H]1[C@@H]2CC[C@]2(C)[C@@H](C3=CC(=O)OC3)CC[C@]12O [digitoxgenin] |  |  |  |  |  |  | no isoform selectivity
